This is an account of results in US8822462B2, “Subunit selective NMDA receptor potentiators for the treatment of neurological conditions” (Emory University, priority 2009, dated 2014).

One experiment addresses T1, NR1/NR2A (Homo sapiens, UniProt Q12879).
T1 construct: expressed in transfected cells; host or cells: Xenopus laevis oocytes
Nature of the experiment: Two electrode voltage clamp, Xenopus laevis oocytes expressing NR1/NR2A. Format: cell-based. Particulars: at 100 μM; read-out: 2A percent effect at the maximum tested concentration. Here is the method: (§1) In the table above, potency is expressed as fitted EC50 value to average composite concentration-effect data constructed from current responses recorded under two electrode voltage clamp from Xenopus laevis oocytes expressing either NR1/NR2A, B, C, or D, GluR1, or GluR6. No effect means less than 20% change in response amplitude at 30 μM of drug.
On the technique in general: Two-electrode voltage clamp is typically applied to oocytes expressing channels or transporters.

The next experiment addresses T2, NR1/NR2B (Homo sapiens, UniProt Q05586+Q13224).
T2 construct: expressed in transfected cells; host or cells: Xenopus laevis oocytes
As to the kind of experiment: Two electrode voltage clamp, Xenopus laevis oocytes expressing NR1/NR2B. Format: cell-based. Particulars: for IC50: fitted to composite concentration-effect data, Max 0 = inhibition, read-out: 2B IC50. How it is done:
as §1

Another experiment concerns the target T3, NR1/NR2C (Homo sapiens, UniProt Q05586+Q14957).
T3 construct: expressed in transfected cells; host or cells: Xenopus laevis oocytes
As to the kind of experiment: Two electrode voltage clamp, Xenopus laevis oocytes expressing NR1/NR2C. The note with it: for activity at 100 µM: read-out: 2C percent effect at the maximum tested concentration; for IC50: fitted to composite concentration-effect data, read-out: 2C IC50; for Emax: maximal effect of fit, read-out: 2C Max. Format: cell-based.
Text: Values are mean+SEM (n=14-20). […] C is the closed level; broken line is the open level.
The Hill slope at both receptors for all analogues was greater than 1, consistent with a cooperative effect of binding at two sites.
as §1

For another experiment, the target named is NR1/NR2D (Homo sapiens, UniProt O15399+Q05586). As to the kind of experiment: Two electrode voltage clamp, Xenopus laevis oocytes expressing NR1/NR2D. Particulars: for activity at 100 µM: read-out: 2D percent effect at the maximum tested concentration, at 100 μM; for Emax: read-out: 2D Max.
Chain of NR1/NR2D (O15399 28-1336, species assumed, other chains not shown): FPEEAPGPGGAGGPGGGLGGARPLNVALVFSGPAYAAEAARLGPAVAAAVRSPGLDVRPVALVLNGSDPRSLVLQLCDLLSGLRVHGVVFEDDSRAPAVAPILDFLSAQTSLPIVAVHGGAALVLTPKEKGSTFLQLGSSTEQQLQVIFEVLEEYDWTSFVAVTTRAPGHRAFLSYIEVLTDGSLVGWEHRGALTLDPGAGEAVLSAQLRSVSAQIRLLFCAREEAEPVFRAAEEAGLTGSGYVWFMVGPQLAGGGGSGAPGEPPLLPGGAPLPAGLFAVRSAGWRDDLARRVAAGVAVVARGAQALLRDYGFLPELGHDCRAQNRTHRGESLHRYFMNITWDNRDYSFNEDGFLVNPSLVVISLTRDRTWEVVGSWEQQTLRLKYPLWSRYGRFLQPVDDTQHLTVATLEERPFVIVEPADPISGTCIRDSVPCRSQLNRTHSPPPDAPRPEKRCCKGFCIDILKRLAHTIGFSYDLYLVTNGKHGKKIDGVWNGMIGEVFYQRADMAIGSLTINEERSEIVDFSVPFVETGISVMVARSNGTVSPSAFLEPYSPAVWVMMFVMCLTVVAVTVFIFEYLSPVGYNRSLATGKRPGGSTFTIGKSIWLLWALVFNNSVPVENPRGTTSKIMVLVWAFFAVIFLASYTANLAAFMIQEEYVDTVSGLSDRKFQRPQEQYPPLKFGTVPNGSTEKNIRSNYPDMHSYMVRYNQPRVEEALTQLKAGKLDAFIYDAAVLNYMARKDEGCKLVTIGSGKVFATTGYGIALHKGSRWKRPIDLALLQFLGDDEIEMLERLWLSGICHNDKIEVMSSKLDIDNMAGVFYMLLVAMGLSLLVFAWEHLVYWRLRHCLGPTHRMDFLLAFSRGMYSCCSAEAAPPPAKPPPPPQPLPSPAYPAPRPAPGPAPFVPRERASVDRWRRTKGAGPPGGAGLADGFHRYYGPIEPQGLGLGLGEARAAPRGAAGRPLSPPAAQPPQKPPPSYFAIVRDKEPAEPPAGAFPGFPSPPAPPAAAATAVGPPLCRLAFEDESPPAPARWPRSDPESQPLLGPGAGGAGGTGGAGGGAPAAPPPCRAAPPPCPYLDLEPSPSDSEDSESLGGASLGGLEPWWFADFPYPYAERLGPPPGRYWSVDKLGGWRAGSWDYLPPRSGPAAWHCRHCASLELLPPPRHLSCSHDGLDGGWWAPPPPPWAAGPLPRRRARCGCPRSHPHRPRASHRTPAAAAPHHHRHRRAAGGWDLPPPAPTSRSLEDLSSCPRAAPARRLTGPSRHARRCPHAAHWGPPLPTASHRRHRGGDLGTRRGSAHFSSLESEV
Where [1] appears, read: read-out: 2B percent effect at the maximum tested concentration.

T2 sequence (Q13224 27-1484, species assumed, other chains not shown): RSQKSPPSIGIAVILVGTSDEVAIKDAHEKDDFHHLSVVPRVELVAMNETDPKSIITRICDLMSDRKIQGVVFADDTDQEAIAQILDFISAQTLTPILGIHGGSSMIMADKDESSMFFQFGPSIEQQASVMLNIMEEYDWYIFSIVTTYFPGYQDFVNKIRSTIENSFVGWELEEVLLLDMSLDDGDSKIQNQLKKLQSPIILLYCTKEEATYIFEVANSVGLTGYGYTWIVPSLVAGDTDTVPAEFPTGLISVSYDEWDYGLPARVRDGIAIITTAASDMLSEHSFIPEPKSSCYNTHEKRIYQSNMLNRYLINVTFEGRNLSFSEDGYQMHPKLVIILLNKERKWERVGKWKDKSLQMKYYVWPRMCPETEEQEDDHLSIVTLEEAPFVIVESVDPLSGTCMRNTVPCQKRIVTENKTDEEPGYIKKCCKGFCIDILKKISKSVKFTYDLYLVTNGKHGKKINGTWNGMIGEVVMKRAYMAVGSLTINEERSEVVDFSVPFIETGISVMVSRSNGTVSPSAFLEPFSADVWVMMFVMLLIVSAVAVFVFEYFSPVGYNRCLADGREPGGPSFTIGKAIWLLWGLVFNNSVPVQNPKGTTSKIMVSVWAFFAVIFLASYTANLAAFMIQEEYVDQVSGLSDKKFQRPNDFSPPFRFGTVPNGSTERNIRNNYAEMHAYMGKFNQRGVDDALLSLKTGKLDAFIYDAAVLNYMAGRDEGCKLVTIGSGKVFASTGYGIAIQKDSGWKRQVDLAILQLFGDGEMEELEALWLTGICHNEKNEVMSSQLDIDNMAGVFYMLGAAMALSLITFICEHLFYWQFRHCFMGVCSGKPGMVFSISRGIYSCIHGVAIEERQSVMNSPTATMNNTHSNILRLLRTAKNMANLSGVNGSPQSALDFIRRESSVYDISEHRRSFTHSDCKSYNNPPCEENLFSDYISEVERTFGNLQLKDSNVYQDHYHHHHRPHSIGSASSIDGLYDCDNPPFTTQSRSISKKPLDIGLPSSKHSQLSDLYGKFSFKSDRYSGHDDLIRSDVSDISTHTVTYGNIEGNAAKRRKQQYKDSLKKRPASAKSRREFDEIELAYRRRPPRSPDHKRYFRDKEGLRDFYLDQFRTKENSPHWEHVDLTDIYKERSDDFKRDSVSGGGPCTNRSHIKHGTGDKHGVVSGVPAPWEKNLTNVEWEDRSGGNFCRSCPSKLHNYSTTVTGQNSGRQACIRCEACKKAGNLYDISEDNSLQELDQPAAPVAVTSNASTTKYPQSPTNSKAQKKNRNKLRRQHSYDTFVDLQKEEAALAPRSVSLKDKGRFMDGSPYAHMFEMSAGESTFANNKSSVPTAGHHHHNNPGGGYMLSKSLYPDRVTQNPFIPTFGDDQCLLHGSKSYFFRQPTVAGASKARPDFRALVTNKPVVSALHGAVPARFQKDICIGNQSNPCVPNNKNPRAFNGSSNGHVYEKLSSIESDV
T3 sequence (Q14957 20-1233, species assumed, other chains not shown): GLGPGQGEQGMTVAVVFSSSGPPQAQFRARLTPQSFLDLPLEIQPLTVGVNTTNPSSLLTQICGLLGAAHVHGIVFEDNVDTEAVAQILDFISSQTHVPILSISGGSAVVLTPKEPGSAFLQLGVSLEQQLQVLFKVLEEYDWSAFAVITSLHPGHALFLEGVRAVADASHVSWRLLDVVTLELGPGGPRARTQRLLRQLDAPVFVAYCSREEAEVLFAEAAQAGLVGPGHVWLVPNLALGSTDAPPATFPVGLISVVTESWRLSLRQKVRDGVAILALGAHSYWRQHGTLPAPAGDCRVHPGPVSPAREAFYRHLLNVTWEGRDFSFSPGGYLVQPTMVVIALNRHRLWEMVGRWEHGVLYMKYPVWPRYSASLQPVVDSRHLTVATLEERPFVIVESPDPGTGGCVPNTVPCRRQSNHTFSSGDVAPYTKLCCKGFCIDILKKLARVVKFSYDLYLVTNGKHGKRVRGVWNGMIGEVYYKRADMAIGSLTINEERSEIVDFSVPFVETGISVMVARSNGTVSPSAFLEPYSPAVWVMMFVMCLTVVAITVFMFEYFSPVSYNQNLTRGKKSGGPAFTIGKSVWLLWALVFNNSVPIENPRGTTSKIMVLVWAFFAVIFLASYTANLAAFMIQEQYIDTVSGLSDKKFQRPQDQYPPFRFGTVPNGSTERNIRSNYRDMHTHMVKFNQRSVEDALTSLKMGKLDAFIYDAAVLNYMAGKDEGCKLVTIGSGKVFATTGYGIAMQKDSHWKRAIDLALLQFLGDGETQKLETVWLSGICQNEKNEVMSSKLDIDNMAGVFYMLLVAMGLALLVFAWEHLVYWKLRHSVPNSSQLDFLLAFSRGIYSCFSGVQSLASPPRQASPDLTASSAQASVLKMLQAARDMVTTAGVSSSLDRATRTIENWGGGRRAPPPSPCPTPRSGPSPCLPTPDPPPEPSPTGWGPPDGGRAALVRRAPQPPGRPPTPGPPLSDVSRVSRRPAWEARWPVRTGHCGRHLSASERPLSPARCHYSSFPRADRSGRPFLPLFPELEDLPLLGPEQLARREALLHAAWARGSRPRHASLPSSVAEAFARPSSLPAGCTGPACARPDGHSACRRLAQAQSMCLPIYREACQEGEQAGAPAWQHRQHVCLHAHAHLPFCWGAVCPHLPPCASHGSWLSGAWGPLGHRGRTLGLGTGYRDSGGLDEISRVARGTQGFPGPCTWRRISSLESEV

Consider `CCN1CC(C(O)Nc2ccc(OC)cc2OC)c2cc(OC)c(OC)cc2C1=O` (stereo not shown) [compound 1439], for which the activity at 100 µM at NR1/NR2A was 99%; on NR1/NR2B (setting [1]) it was 96%; at NR1/NR2C it was 84%; at NR1/NR2D, 89%.
`COc1cc2c(cc1OC)C(COc1ccc(OC(F)(F)F)cc1)N(C(=O)c1cccc(Cl)c1)CC2` (stereo not shown) [1180-9]: the activity at 100 µM is 87% at NR1/NR2A, 97% at NR1/NR2B (setting [1]), 109% at NR1/NR2C and 99% at NR1/NR2D.
By IC50 is commonly meant the point on the concentration scale where inhibition reaches its midpoint. On to `CCOc1ccc(-c2csc(NC(=O)c3ccc(C(C)(C)C)cc3)c2C(=O)O)cc1` [compound 1423], for which the activity at 100 µM on NR1/NR2A is 121%. Also, the IC50 at NR1/NR2B was 18 µM; on NR1/NR2C, 26 µM; against NR1/NR2D it was 25 µM. The figures for the Emax at NR1/NR2C and at NR1/NR2D were 323% and 370%, respectively.
In the case of `CSC1=NCCN1C(=O)c1ccc(C(C)(C)C)cc1` [compound 1343], the activity at 100 µM on NR1/NR2A turned out to be 115%. In addition, the IC50 turned out to be 138 µM on NR1/NR2B, 139 µM at NR1/NR2C and 210 µM against NR1/NR2D. Moreover, the Emax on NR1/NR2C was found to be 303%; on NR1/NR2D, 480%.
On to `COc1cc2c(cc1OC)C(COc1ccc(OCc3ccccc3)cc1)N(C(=O)c1cccc(Cl)c1)CC2` (stereo not shown) [1180-22], for which the activity at 100 µM came out at 95% at NR1/NR2A, 79% at NR1/NR2C and 58% on NR1/NR2D. Besides, the activity at 20 µM at NR1/NR2B (at 20 μM, read-out: 2B percent effect at the maximum tested concentration) came to 50%.
Regarding `Cc1sc(NC(=O)c2ccc(C(C)(C)C)cc2)c(C(N)=O)c1C` [compound 1433], the activity at 100 µM on NR1/NR2A amounted to 97%; at NR1/NR2B (setting [1]), 98%. The IC50 at NR1/NR2C was 51 µM; against NR1/NR2D, 34 µM. Moreover, the Emax was 134% on NR1/NR2C and 150% on NR1/NR2D.
As to `COc1ccc(OCC2c3cc(OC)c(OC)cc3CCN2C(=O)c2ccc(C)cc2)cc1` (stereo not shown) [compound 1371], the activity at 100 µM on NR1/NR2A was 73%; on NR1/NR2B (setting [1]), 70%; on NR1/NR2C it was 89%; on NR1/NR2D, 100%.
Turning to `COc1cccc(OCC2c3cc(OC)c(OC)cc3CCN2C(=O)c2ccccc2)c1` (stereo not shown) [1180-7], the activity at 100 µM was determined as 94% on NR1/NR2A, 92% at NR1/NR2B (setting [1]), 75% on NR1/NR2C and 75% at NR1/NR2D.
On to `CCOC(=O)c1cc(C)sc1NC(=O)c1ccc(C(C)(C)C)cc1` [compound 1400], for which the activity at 100 µM was determined as 80% on NR1/NR2A, 89% at NR1/NR2B (setting [1]), 96% at NR1/NR2C and 86% at NR1/NR2D.
Regarding `COc1ccc(OCC2c3cc(OC)c(OC)cc3CCN2S(=O)(=O)c2ccccc2)cc1` (stereo not shown) [compound 1487], the activity at 100 µM at NR1/NR2A is 89%; on NR1/NR2B (setting [1]), 71%; at NR1/NR2C it was 69%; at NR1/NR2D, 79%.
As for `CC(C)c1ccc(C(=O)Nc2sccc2C(=O)O)cc1` [compound 1488], the activity at 100 µM came out at 98% at NR1/NR2A, 83% on NR1/NR2B (setting [1]), 82% on NR1/NR2C and 80% on NR1/NR2D.
Turning to `COc1ccc(OCC2c3cc(OC)c(OC)cc3CCN2C(=O)c2cccc(O)c2)cc1` (stereo not shown) [1180-3], the activity at 100 µM at NR1/NR2A amounted to 126%; at NR1/NR2B (setting [1]) it was 78%; on NR1/NR2C, 81%; at NR1/NR2D, 79%.
In the case of `COc1ccc(OCC2c3cc(OC)c(OC)cc3CCN2C(=O)c2cccc(Cl)c2)cc1` (stereo not shown) [compound 1390], the activity at 100 µM was 115% at NR1/NR2A and 82% on NR1/NR2B (setting [1]). In addition, the IC50 at NR1/NR2C and against NR1/NR2D was 3 µM in each case. For the same compound, the results for the Emax at NR1/NR2C and on NR1/NR2D were 215% and 205%, respectively.
For `CC(C)(C)c1ccc(NC(=O)C2CC=CCC2C(=O)O)cc1` (stereo not shown) [compound 1480], the activity at 100 µM at NR1/NR2A came out at 92%; at NR1/NR2B (setting [1]) it was 83%; at NR1/NR2C, 86%; at NR1/NR2D, 85%.
Consider `Cc1ccnc(NC(=O)c2ccc(C(C)(C)C)cc2)c1` [compound 1398], for which the activity at 100 µM at NR1/NR2A came to 89%; at NR1/NR2B (setting [1]), 102%; on NR1/NR2C it was 87%; on NR1/NR2D, 76%.
In the case of `COc1ccc(OCC2c3cc(OC)c(OC)cc3CCN2C(=O)CN2CCOCC2)cc1` (stereo not shown) [1180-24], the activity at 100 µM stood at 100% at NR1/NR2A, 96% at NR1/NR2B (setting [1]), 79% at NR1/NR2C and 83% at NR1/NR2D.
Regarding `COc1ccc(OCC2c3cc(OC)c(OC)cc3CCN2C(=O)c2cccc(Br)c2)cc1` (stereo not shown) [compound 1391], the activity at 100 µM at NR1/NR2A was found to be 119%; at NR1/NR2B (setting [1]), 74%. The IC50 was found to be 1 µM on NR1/NR2C and 2 µM on NR1/NR2D. Besides, the Emax came out at 195% on NR1/NR2C and 188% at NR1/NR2D.
Turning to `CC(C)(C)c1ccc(C(=O)Nc2sc3c(c2C(=O)O)CCC3)cc1` [compound 1399], the activity at 100 µM at NR1/NR2A amounted to 100%; at NR1/NR2B (setting [1]), 108%. Besides, the IC50 is 77 µM at NR1/NR2C and 26 µM against NR1/NR2D. For the same compound, the Emax at NR1/NR2C was 301%; on NR1/NR2D, 261%.
On to `COc1ccc(OCC2c3cc(OC)c(OC)cc3CCN2C(=O)c2cccc(OC)c2)cc1` (stereo not shown) [compound 1392], for which the results for the activity at 100 µM on NR1/NR2A and on NR1/NR2B (setting [1]) were 104% and 59%, respectively. For the same compound, the IC50 on NR1/NR2C amounted to 6 µM; at NR1/NR2D, 12 µM. Further, the Emax at NR1/NR2C amounted to 181%; on NR1/NR2D, 179%.
As for `COc1ccc(OCC2c3cc(OC)c(OC)cc3CCN2C(=O)c2ccno2)cc1` (stereo not shown) [1180-5], the activity at 100 µM at NR1/NR2A turned out to be 98%; at NR1/NR2B (setting [1]), 86%; on NR1/NR2C it was 83%; on NR1/NR2D, 81%.
Turning to `Cc1csc(C(=O)O)c1NC(=O)c1ccc(C(C)(C)C)cc1` [compound 1428], the activity at 100 µM on NR1/NR2A was found to be 105%; at NR1/NR2B (setting [1]) it was 70%; at NR1/NR2C, 80%; on NR1/NR2D it was 72%.
With `COc1ccc(OCC2c3cc(OC)c(OC)cc3CCN2C(=O)c2ccc(Br)cc2)cc1` (stereo not shown) [compound 1393], the activity at 100 µM on NR1/NR2A turned out to be 120%; on NR1/NR2B (setting [1]) it was 80%; at NR1/NR2C, 96%; at NR1/NR2D, 94%.
Take `COc1ccc(-c2csc(NC(=O)c3ccc(C(C)(C)C)cc3)c2C(=O)O)cc1` [compound 1424]: on NR1/NR2A, the activity at 100 µM is 123%. The values for the IC50 at NR1/NR2B, on NR1/NR2C and against NR1/NR2D were 19 µM, 42 µM and 43 µM, respectively. Further, the Emax on NR1/NR2C worked out at 434%; on NR1/NR2D, 475%.
Turning to `COc1cccc(OCC2c3cc(OC)c(OC)cc3CCN2C(=O)c2cccc(Cl)c2)c1` (stereo not shown) [1180-6], the activity at 100 µM on NR1/NR2A worked out at 93%; at NR1/NR2B (setting [1]), 97%; at NR1/NR2C, 94%; on NR1/NR2D, 88%.
Consider `O=C(O)C1=C(NC(=O)c2ccc(I)cc2)SC2CCCC12` (stereo not shown) [compound 1419], for which the activity at 100 µM came out at 93% at NR1/NR2A, 91% at NR1/NR2B (setting [1]), 97% at NR1/NR2C and 90% at NR1/NR2D.
Take `COc1ccc(OCC2c3cc(OC)c(OC)cc3CCN2C(=O)c2cccs2)cc1` (stereo not shown) [compound 1486]: the activity at 100 µM on NR1/NR2A worked out at 78%; at NR1/NR2B (setting [1]), 88%. For the same compound, the IC50 on NR1/NR2C is 9 µM; at NR1/NR2D, 6 µM. The results for the Emax at NR1/NR2C and at NR1/NR2D were 131% and 112%, respectively.
On to `CCc1cc(C(=O)O)c(NC(=O)c2ccc(C(C)(C)C)cc2)s1` [compound 1421], for which the activity at 100 µM stood at 106% on NR1/NR2A and 100% at NR1/NR2B (setting [1]). For the same compound, the half-inhibitory concentration (IC50) at NR1/NR2C was 41 µM; on NR1/NR2D, 35 µM. The Emax came out at 159% on NR1/NR2C and 152% on NR1/NR2D.
As for `COc1ccc(OCC2c3cc4c(cc3CCN2C(=O)c2cccc(Cl)c2)OCO4)cc1` (stereo not shown) [1180-25], the activity at 100 µM on NR1/NR2A amounted to 96%; on NR1/NR2B (setting [1]) it was 76%. The values for the half-inhibitory concentration (IC50) at NR1/NR2C and on NR1/NR2D were 12 µM and 7 µM, respectively. The Emax was 188% on NR1/NR2C and 162% on NR1/NR2D.
Take `CSC1=NCCN1C(=O)c1ccc(C)cc1` [compound 1344]: the activity at 100 µM at NR1/NR2A was 78%; on NR1/NR2C, 88%; at NR1/NR2D, 97%. The IC50 on NR1/NR2B was found to be 174 µM.
In the case of `COc1ccc(NC(O)C2CN(C)C(=O)c3cc(OC)c(OC)cc32)c(OC)c1` (stereo not shown) [compound 1438], the activity at 100 µM on NR1/NR2A was determined as 114%; on NR1/NR2B (setting [1]) it was 85%; at NR1/NR2C, 77%; on NR1/NR2D it was 87%.
With `Cc1sc(NC(=O)c2ccc(C(C)(C)C)cc2)c(C(=O)O)c1C` [compound 1418], the activity at 100 µM is 99% on NR1/NR2A and 115% at NR1/NR2B (setting [1]). Moreover, the IC50 worked out at 33 µM on NR1/NR2C and 35 µM against NR1/NR2D. For the same compound, the Emax at NR1/NR2C turned out to be 187%; on NR1/NR2D, 195%.
